Measured values: EP2970215B1, “PYRROLIDINE DERIVATIVES, PHARMACEUTICAL COMPOSITIONS CONTAINING THEM, AND THEIR USE IN THERAPY” (AbbVie Deutschland GmbH & Co. KG, priority 2013, dated 2014)

What follows are compounds tested against T1, human GlyT1c transporter (Homo sapiens, UniProt P48067) (assay: Radioligand binding assay using recombinant CHO cell membranes expressing human GlyT1). Details: radioligand binding to human GlyT1c transporter-expressing membranes.
T1 construct: expressed in transfected cells; host or cells: CHO cells (recombinant; line hGlyT1c_5_CHO is named for the uptake assay)
T1 sequence (P48067 1-706): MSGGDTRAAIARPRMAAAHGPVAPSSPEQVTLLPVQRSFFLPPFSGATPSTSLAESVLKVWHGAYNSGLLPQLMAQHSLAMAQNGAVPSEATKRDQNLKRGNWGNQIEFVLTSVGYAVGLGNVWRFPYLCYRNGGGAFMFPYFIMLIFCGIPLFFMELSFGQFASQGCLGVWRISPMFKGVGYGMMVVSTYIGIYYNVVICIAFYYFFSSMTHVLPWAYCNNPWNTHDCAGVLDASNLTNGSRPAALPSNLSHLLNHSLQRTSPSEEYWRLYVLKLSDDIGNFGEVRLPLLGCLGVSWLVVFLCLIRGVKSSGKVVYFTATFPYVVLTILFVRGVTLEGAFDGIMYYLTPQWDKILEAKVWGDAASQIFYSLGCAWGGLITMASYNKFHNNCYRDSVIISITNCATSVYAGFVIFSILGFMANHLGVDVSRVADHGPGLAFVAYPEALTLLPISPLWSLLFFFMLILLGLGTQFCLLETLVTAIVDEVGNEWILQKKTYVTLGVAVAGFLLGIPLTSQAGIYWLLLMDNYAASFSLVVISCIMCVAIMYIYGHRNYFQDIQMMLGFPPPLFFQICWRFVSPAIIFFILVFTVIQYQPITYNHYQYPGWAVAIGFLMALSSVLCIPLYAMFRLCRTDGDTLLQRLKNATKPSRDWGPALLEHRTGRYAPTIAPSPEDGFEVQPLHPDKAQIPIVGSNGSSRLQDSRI
Text: 2. Radioligand binding assays using recombinant CHO cell membranes expressing human GlyT1: […]

Row | Ki [nM] | Compound
1 | ≤ 10 | Cn1cnc(S(=O)(=O)N2C[C@H](Nc3cc(OCC(F)(F)F)c(Cl)cn3)[C@@H](c3ccc(F)cc3)C2)c1 [Example 806, 5-chloro-N-{(3R,4S)-4-(4-fluorophenyl)-1-[(1-methyl-1H-imidazol-4-yl)sulfonyl]pyrrolidin-3-yl}-4-(2,2,2-trifluoroethoxy)pyridin-2-amine]
2 | ≤ 10 | Cn1cnc(S(=O)(=O)N2C[C@H](Nc3cc(OCC(F)(F)F)ccn3)[C@@H](c3ccc(F)cc3)C2)c1 [Example 807, N-{(3R,4S)-4-(4-fluorophenyl)-1-[(1-methyl-1H-imidazol-4-yl)sulfonyl]pyrrolidin-3-yl}-4-(2,2,2-trifluoroethoxy)pyridin-2-amine]
3 | ≤ 10 | Cn1cnc(S(=O)(=O)N2C[C@H](Nc3cc(OCC(F)(F)F)c(F)cn3)[C@@H](c3ccc(F)cc3)C2)c1 [Example 810, 5-fluoro-N-{(3R,4S)-4-(4-fluorophenyl)-1-[(1-methyl-1H-imidazol-4-yl)sulfonyl]pyrrolidin-3-yl}-4-(2,2,2-trifluoroethoxy)pyridin-2-amine]

Same assay, conditions: radioligand binding, recombinant CHO cell membranes expressing human GlyT1c

Row | Compound | Ki [nM]
4 | Cn1cnc(S(=O)(=O)N2CC(Cc3cc(C(F)(F)F)ccn3)C(c3ccccc3)C2)c1 (stereo not drawn) [Example 817, 2-({1-[(1-methyl-1H-imidazol-4-yl)sulfonyl]-4-phenylpyrrolidin-3-yl}methyl)-4-(trifluoromethyl)pyridine] | ≤ 1000
5 | CCCCCCNC1CN(S(=O)(=O)c2cn(C)cn2)CC1[C@H]1CCCO1 (stereo partly drawn) [Example 820, N-Hexyl-1-[(1-methyl-1H-imidazol-4-yl)sulfonyl]-4-[(2R)-tetrahydrofuran-2-yl]pyrrolidin-3-amine] | ≤ 10000
6 | Cn1cnc(S(=O)(=O)N2C[C@H](Nc3ccc4c(c3)N(Cc3ccccc3)CC4)[C@@H](c3ccccc3)C2)c1 [Example 826, 1-benzyl-N-{(3R,4S)-1-[(1-methyl-1H-imidazol-4-yl)sulfonyl]-4-phenylpyrrolidin-3-yl}-2,3-dihydro-1H-indol-6-amine] | ≤ 10000
7 | Cn1cc(S(=O)(=O)N2C[C@H](Nc3cccc(OC(F)(F)F)c3)[C@@H](c3ccc(F)cc3)C2)nn1 [Example 837, (3R,4S)-4-(4-fluorophenyl)-1-[(1-methyl-1H-1,2,3-triazol-4-yl)sulfonyl]-N-[3-(trifluoromethoxy)phenyl]pyrrolidin-3-amine] | ≤ 10
8 | Cn1cc(S(=O)(=O)N2C[C@H](Nc3cccc(C(F)(F)F)c3)[C@@H](c3ccc(F)cc3)C2)nn1 [Example 839, (3R,4S)-4-(4-fluorophenyl)-1-[(1-methyl-1H-1,2,3-triazol-4-yl)sulfonyl]-N-[3-(trifluoromethyl)phenyl]pyrrolidin-3-amine] | ≤ 10
9 | Cn1cc(S(=O)(=O)N2C[C@H](Nc3ccc(F)c(Cl)c3)[C@@H](c3ccc(F)cc3)C2)nn1 [Example 842, (3R,4S)-N-(3-chloro-4-fluorophenyl)-4-(4-fluorophenyl)-1-[(1-methyl-1H-1,2,3-triazol-4-yl)sulfonyl]pyrrolidin-3-amine] | ≤ 10
10 | Cn1cnc(S(=O)(=O)N2C[C@H](Nc3cc(C(F)(F)F)c(F)cn3)[C@@H](c3ccc(F)cc3)C2)c1 [Example 865, 5-fluoro-N-{(3R,4S)-4-(4-fluorophenyl)-1-[(1-methyl-1H-imidazol-4-yl)sulfonyl]pyrrolidin-3-yl}-4-(trifluoromethyl)pyridin-2-amine] | ≤ 10
11 | (3R,4S)-4-(1,3-dioxan-2-yl)-N,N-dihexyl-1-[(1-methyl-1H-imidazol-4-yl)sulfonyl]pyrrolidin-3-amine [Example 909] | ≤ 1000

More lines, now with the values ahead:

Row | Ki [nM] | Compound
12 | ≤ 100 | CC(C)c1ccnc(N[C@H]2CN(S(=O)(=O)c3cn(C)cn3)C[C@@H]2c2ccccc2)c1 [Example 813, N-{(3R,4S)-1-[(1-methyl-1H-imidazol-4-yl)sulfonyl]-4-phenylpyrrolidin-3-yl}-4-(propan-2-yl)pyridin-2-amine]
13 | ≤ 10000 | CCCCCCNC1CN(S(=O)(=O)c2cn(C)cn2)CC1[C@@H]1CCCO1 (stereo partly drawn) [Example 821, N-hexyl-1-[(1-methyl-1H-imidazol-4-yl)sulfonyl]-4-[(2S)-tetrahydrofuran-2-yl]pyrrolidin-3-amine]
14 | ≤ 1000 | Cn1cnc(S(=O)(=O)N2CC(Nc3ccc(F)c(Cl)c3)C([C@@H]3CCCO3)C2)c1 (stereo partly drawn) [Example 825, N-(3-chloro-4-fluorophenyl)-1-[(1-methyl-1H-imidazol-4-yl)sulfonyl]-4-[(2S)-tetrahydrofuran-2-yl]pyrrolidin-3-amine]
15 | ≤ 100 | Cn1cnc(S(=O)(=O)N2CC3c4ccccc4CCC3(NCc3ccc(C(F)(F)F)cc3Cl)C2)c1 (stereo not drawn) [Example 890, N-[2-chloro-4-(trifluoromethyl)benzyl]-2-[(1-methyl-1H-imidazol-4-yl)sulfonyl]-1,2,3,4,5,9b-hexahydro-3aH-benzo[e]isoindol-3a-amine]
